Reference: PMC6522510 (Nature Communications, 2019)
Like-named read-outs stand apart in the source and are kept apart here.

How the values were obtained:
[1] = system: AMKL patient-derived xenograft; assay: In vivo efficacy, survival; set-up: species or system NSG-SGM3 mice; conditions: AMKL PDX, 50 mg kg−1 q4d, i.p.
[2] = system: MOLM-13; format: cell-based; conditions: Homo sapiens, 72 h, Cell Titer Glo
[3] = system: Mll PTD/wt:Flt3 ITD/ITD double knock-in primary transplant blasts (bone marrow, spleen); assay: Accumulation in primary murine blasts; format: cell-based, mouse; conditions: blasts from bone marrow or spleen
Protocol: Cells were washed twice with ice-cold PBS; cell pellets were solubilized in 400 µL 1 N NaOH and agitated (300 rpm) at room temperature for 2 h. Then samples were neutralized with […] 1 M HCl; a 25 µL aliquot of lysate was used to estimate protein concentration using a Pierce BCA protein assay kit (Thermo Scientific). Total radioactivity was measured by a Tri-Carb 4810TR liquid scintillation counter (Perkin-Elmer) after mixing the sample with 4 mL of Emulsifier Safe (Perkin Elmer); the results were normalized to total protein content as measured by a Pierce BCA protein assay kit. Three independent experiments were performed in triplicate.
Bone marrow and splenocytes were isolated from mice transplanted with dKI AML and CG-V617 AMKL. Following red blood cells lysis, dKI AML leukemic blasts from vehicle treated mice were evaluated for accumulation of cytarabine and gemcitabine using the uptake assay described above.
Supplementary Figure 5. Accumulation of cytarabine and gemcitabine .
unlabeled and [3H]-cytarabine (Ara- C) or gemcitabine ( Gem ). Intracellular Ara- C, Gem ,
scintillation counting and normalized to protein levels. Representative chromatogram for
as disintegrations per minute (DPM) over complete run time. (c) Percentage of total
independent experiments (N=9). (d) Accumulation was determined in cell lysate of bone
double knock-in primary transplant recipient. […]

[4] = system: Mll-PTD/wt:Flt3ITD/ITD secondary transplants; assay: In vivo efficacy, survival; set-up: species or system mice; conditions: for Median survival: i.p.
[5] = system: MLLr primary AML blast samples; assay: Ex vivo drug treatment of primary AML blasts on mesenchymal stromal cells; format: cell-based; conditions: Homo sapiens; primary blasts on MSC, 96 h, range over patient samples
[6] = system: AML cell lines; conditions: human, 5 min, 1 µM
[7] = system: U937; format: cell-based; conditions: Homo sapiens, U-937; 72 h, Cell Titer Glo
[8] = system: Mll-PTD/wt:Flt3ITD/ITD primary transplants; assay: In vivo efficacy, survival; set-up: species or system mice; conditions: Mll-PTD/wt:Flt3ITD/ITD primary transplants, 50 mg kg−1 q4d, i.p.
[9] = system: ML-2; format: cell-based; conditions: Homo sapiens, 72 h, Cell Titer Glo
[10] = system: CMS; format: cell-based; conditions: Homo sapiens; 72 h, Cell Titer Glo; read-out: IC50 CMS
[11] = system: CHRF288-11-luciferase/YFP+ xenograft; assay: In vivo efficacy, survival; set-up: species or system NSG mice; conditions: CHRF288-11 xenograft, 50 mg kg−1 q4d, i.p.
[12] = system: ML-2-luciferase/YFP+ xenograft; assay: In vivo efficacy, survival; set-up: species or system NSG mice; conditions: ML-2 xenograft, 50 mg kg−1 q4d, i.p.
[13] = system: AML cell lines; assay: Nuclear accumulation of [3H]-labelled drug; format: cell-based, human; conditions: 2 h, 1 µM
[14] = system: CMK; assay: Secondary dose-response HTS, Cell Titer Glo; format: cell-based, human; conditions: Homo sapiens, CMK; secondary HTS, 72 h, average of triplicate; read-out: EC50 CMK
[15] = system: panel of 8 AML cell lines; assay: Secondary dose-response HTS, whole panel; format: cell-based, human; conditions: Homo sapiens; all cell lines; read-out: potency across subtypes in the secondary HTS
[16] = system: AMKL primary AML blast samples; assay: Ex vivo drug treatment of primary AML blasts on mesenchymal stromal cells; format: cell-based; conditions: Homo sapiens; primary blasts on MSC, 96 h
[17] = system: CMK; assay: cells; set-up: species or system AML cell lines (8); Secondary HTS, 10-point dose-response in triplicate, Cell Titer Glo viability, four-parameter fit EC50; conditions: Homo sapiens, CMK, 72 h, read-out: CMK
[18] = system: M07e; assay: Secondary dose-response HTS, Cell Titer Glo; format: cell-based, human; conditions: Homo sapiens, M-07e
[19] = In vivo tolerability / maximum tolerated dose; set-up: species or system mice
Protocol: Next, we sought to compare the in vivo efficacy of gemcitabine and cabazitaxel to the standard of care, cytarabine. Due to limitations with tolerability, we have previously treated our AML xenograft models with low-dose cytarabine[13],[31]. […] Tolerability studies of gemcitabine at the same dose and schedule was not tolerated. […] Similarly, we performed tolerability of cabazitaxel using multiple doses on an intermittent every 3 or 4-day schedule; the only tolerable dose was 5 mg/kg.
All animal studies were performed in accordance with Animal Care and Use Programs under protocols approved by the Institutional Animal Care and Use Committee at OSU. We have complied with the relevant ethical considerations for animal research overseen by this committee. Mice were housed in a barrier facility. Non-tumor bearing Ly5.2 C57Bl/6 (BoyJ) mice were treated with 100, 120, or 140 mg kg^−1 gemcitabine on an intermittent schedule every 3 days for 3 weeks; 3 or 6 mg kg^−1 doses were used to evaluate daily for 5 days schedule. All doses were administered by intraperitoneal injection; tolerability was assessed by daily weights and observation of changes in body condition.
Supplementary Figure 12. Establish maximum tolerated dose of gemcitabine. Non-tumor bearing female BoyJ mice were treated on an intermittent schedule every 3 days for 3 weeks with 100, 120, or 140 m gkg-1 gemcitabine (Gem ) or treated on a daily schedule once a day for 5 days with 3 or 6 m gkg-1 Gem. Daily weight of treated mice; data reported as a percent weight loss from day 0. Arrow indicate treatment days.

[20] = system: U937; assay: Secondary dose-response HTS, Cell Titer Glo; format: cell-based, human; conditions: Homo sapiens, U-937; secondary HTS, 72 h, average of triplicate; read-out: EC50 U937

Nc1ccn([C@@H]2O[C@H](CO)[C@@H](O)C2(F)F)c(=O)n1 [Gemcitabine, gemcitabine]
Median survival [1]: 76 days | IC50 [2]: 0.7 nM | accumulation of total gemcitabine versus cytarabine [3]: 6.0–6.7 fold | Median survival ([4]; 3 mg kg−1 daily x 5 days): 49 days | tolerability of the intermittent MTD ([4]; 120 mg kg−1 q3d): not well tolerated | Median survival ([4]; 120 mg kg−1 q3d (only 4 doses received)): 52 days | IC50 [5]: 267 to 4230 nM | intracellular uptake, gemcitabine relative to cytarabine [6]: 1.2–3.6 fold | IC50 [7]: 31 nM | Median survival [8]: 69 days | IC50 [9]: 0.6 nM | IC50 [10]: 1 nM | Median survival [11]: 48 days | Median survival ([11]; x 2 cycles): 66 days | Median survival [12]: 45 days | nuclear accumulation, gemcitabine compared to cytarabine [13]: 5–19.8 fold | EC50 [14]: 10 nM | EC50 [15]: < 65 nM | IC50 [16]: 108 nM | EC50 [17]: 8.4 nM | EC50 ([18]; secondary HTS, 72 h, average of triplicate, read-out: EC50 M07e): 60 nM | EC50 ([18]; secondary high-throughput screen, M07e, read-out: average effective concentration, M07e): 62 nM | MTD at 5 days ([19]; female, Ly5.2 C57Bl/6 (BoyJ), mouse, in vivo, ip, immunocompetent (BoyJ) mice, daily for 5 days, i.p., read-out: MTD, daily administration): 3 mg/kg | MTD, intermittent administration ([19]; immunocompetent (BoyJ) mice, q3d for 3 weeks, i.p.): 120 mg/kg | tolerability ([19]; mouse, in vivo): not tolerated | EC50 [20]: 10 nM
